# Where two headings read alike, the source gives them in different places.
# Legend:
# [1] = target: Lister 427WT T. b. brucei; assay: Adenosine deaminase susceptibility (drug sensitivity with/without 2 µM deoxycoformycin); format: cell-based, Trypanosoma brucei brucei; conditions: for EC50: Trypanosoma brucei, Lister 427WT, mean ± SEM, n=3
# [2] = Metabolic stability, pooled human liver microsomes (phase I and II)
# Procedure: Mouse, rat, and pooled human liver microsomes were purchased from a commercial source (Corning) and stored at -80 °C. NADPH generating system solutions A and B and UGT reaction mix solutions A and B (Corning) were kept at -20°C. The test compound and the reference compounds diclofenac (MW […]
# microsomal stability assay was carried out based on the BD Biosciences Guidelines for Use (TF000017 Rev1.0) with minor adaptations. Metabolic stability of the compounds was studied through the CYP450 superfamily (phase I metabolism) by fortification with reduced nicotinamide adenine dinucleotide phosphate (NADPH) and through uridine glucuronosyl-transferase (UGT) enzymes (phase II metabolism) by fortification with uridine diphosphate glucuronic acid (UDPGA). For the CYP450 and other NADPH dependent enzymes, both compounds were incubated at 5 µM together with 0.5 mg mL-1 liver microsomes in potassium phosphate buffer in a reaction started by the addition of 1 mM NADPH […]
# At these time points, 20 µL was withdrawn from the reaction mixture and 80 µL cold acetonitrile (ACN) containing the internal standard tolbutamide, was added to inactivate the enzymes and precipitate the proteins. The mixture was vortexed for 30 s and centrifuged at 4 °C for 5 min at 15,000 rpm. The supernatant was stored at -80°C until analysis. For the UGT enzymes, both compounds were incubated at 5 µM together with 0.5 mg mL-1 liver microsomes in a reaction started by the addition of 2 mM UDPGA cofactor. The corresponding loss of parent compound was determined using liquid chromatography (UPLC) (Waters AquityTM) coupled with tandem quadrupole mass spectrometry (MS²) (Waters XevoTM), equipped with an electrospray ionization (ESI) interface and operated in multiple reaction monitoring (MRM) mode. […]
# T. b. brucei Squib 427 = assay: Mouse model of acute HAT
# Procedure: Drinking water and food were available ad libitum throughout the experiment. […] The reference drug suramin was formulated in phospahte-buffered saline (PBS) at 2.5 mg mL^−1 and administered s.i.d. i.p. for 5 days at 10 mg kg^−1 (n = 3). All treatments were initiated 30 min prior to the i.p. infection. […] Parasitaemia was determined by microscopic evaluation of tail vein blood samples at 4, 7, 10, 14 and 21 dpi (pre-set endpoint). As a test of cure, blood samples (250 µL) were collected from treated mice at 21 dpi and were sub-inoculated i.p. in naive Swiss mice (n = 3), followed by monitoring of parasitaemia as follow-up.
# [3] = test system: T. brucei Lister 427 cells; assay: Nucleotide pool analysis (HPLC); format: cell-based, Trypanosoma brucei; conditions: 25 μM, versus untreated trypanosomes
# Excerpt: (1 picture or pasted object on this page, not shown here)
# The following primers were used: […]
# [4] = absence of deoxycoformycin, read-out: T. b. brucei EC50, -Dcf
# [5] = presence of 2 µM deoxycoformycin, read-out: T. b. brucei EC50, +Dcf
structure (smiles),measurement,setting,value
"Nc1ncnc2c1ccn2[C@@H]1O[C@H](CO)C[C@H]1O [Compound 9, 3’-deoxytubercidin]",effect of adenosine deaminase inhibition (2’-deoxycoformycin) on EC50,[1],not significantly affected
same,EC50,[1]; [4],37 ± 3 nM
same,EC50,[1]; [5],49 ± 9 nM
same,"% analogue 9 remaining, EXP 1 / EXP 2","[2]; microsomes, 0 min, 5 µM",100%
same,"% analogue 9 remaining, Mean","[2]; microsomes, 0 min, 5 µM",100%
same,metabolic stability,"[2]; s9, 0.5 h",metabolically stable
same,"parasitaemia, individual mice","T. b. brucei Squib 427; 6.25 mg/kg bid PO, 4 dpi",0
same,"parasitaemia, individual mice","T. b. brucei Squib 427; 6.25 mg/kg bid PO, 7 dpi",0
same,"parasitaemia, individual mice","T. b. brucei Squib 427; 6.25 mg/kg bid PO, 10 dpi",0
same,"parasitaemia, individual mice","T. b. brucei Squib 427; 6.25 mg/kg bid PO, 14 dpi",0
same,"parasitaemia, individual mice","T. b. brucei Squib 427; 6.25 mg/kg bid PO, 21 dpi",0
same,"parasitaemia, individual mice","T. b. brucei Squib 427; 12.5 mg/kg bid PO, 4 dpi",0
same,"parasitaemia, individual mice","T. b. brucei Squib 427; 12.5 mg/kg bid PO, 7 dpi",0
same,"parasitaemia, individual mice","T. b. brucei Squib 427; 12.5 mg/kg bid PO, 10 dpi",0
same,"parasitaemia, individual mice","T. b. brucei Squib 427; 12.5 mg/kg bid PO, 14 dpi",0
same,"parasitaemia, individual mice","T. b. brucei Squib 427; 12.5 mg/kg bid PO, 21 dpi",0
same,"parasitaemia, individual mice","T. b. brucei Squib 427; 25 mg/kg bid PO, 4 dpi",0
same,"parasitaemia, individual mice","T. b. brucei Squib 427; 25 mg/kg bid PO, 7 dpi",0
same,"parasitaemia, individual mice","T. b. brucei Squib 427; 25 mg/kg bid PO, 10 dpi",0
same,"parasitaemia, individual mice","T. b. brucei Squib 427; 25 mg/kg bid PO, 14 dpi",0
same,"parasitaemia, individual mice","T. b. brucei Squib 427; 25 mg/kg bid PO, 21 dpi",0
same,tolerability in mice,"T. b. brucei Squib 427; all treatment schedules, no adverse reactions, no weight loss",well tolerated
same,test of cure: blood of surviving animals at 21 dpi inoculated in treatment-naïve mice,T. b. brucei Squib 427; follow-up of parasitaemia,absence of parasitaemia
same,blood parasitaemia and survival at 21 dpi,T. b. brucei Squib 427; i.p. 10 mg kg^−1 s.i.d. for 5 days,negative blood parasitaemia and survival of all treated mice
same,blood parasitaemia and survival at 21 dpi,T. b. brucei Squib 427; oral 6.25 mg kg^−1 b.i.d. for 5 days,negative blood parasitaemia and survival of all treated mice
same,blood parasitaemia and survival at 21 dpi,T. b. brucei Squib 427; oral 12.5 mg kg^−1 b.i.d. for 5 days,negative blood parasitaemia and survival of all treated mice
same,blood parasitaemia and survival at 21 dpi,T. b. brucei Squib 427; oral 25 mg kg^−1 b.i.d. for 5 days,negative blood parasitaemia and survival of all treated mice
same,effect on intracellular purine and pyrimidine nucleotide pools,[3],did not cause any change in the balance or total quantity of intracellular purine and pyrimidine nucleotides
"Nc1ncnc2c1c(Br)cn2[C@@H]1O[C@H](CO)C[C@H]1O [Compound 10, 3’-deoxy-7-Br-tubercidin]",effect of adenosine deaminase inhibition (2’-deoxycoformycin) on EC50,[1],not significantly affected
same,EC50,[1]; [4],2 ± 0.1 nM
same,EC50,[1]; [5],1.9 ± 0.2 nM
same,tolerability in mice,T. b. brucei Squib 427; 6.25 mg kg^−1 orally,not well tolerated

# — paper PMC6895180 (Nature Communications, 2019)
